# Laboratory results as given in US10655144B2, “Nucleic acid construct with a p16 promoter that causes a prodrug converting enzyme to be expressed specifically in senescent cells” (Buck Institute for Research on Aging, priority 2012, dated 2020).
# Experiments:
# senescent cells [1] = experiment: Lifespan of wild type INK-ATTAC transgenic mice with senescent cells removed by weekly AP20187; assay type: in vivo; conditions: weekly treatment from 10-12 weeks of age; PBS control 21 months; FIG. 4
# Procedure: (§1) Clearance of therapy-induced senescent cells improves age-sensitive traits and other health parameters in aged animals. […] INK-ATTAC transgenic animals from each of lineage 3 (TG3) and lineage 5 (TG5) were used in the experiments (see Baker et al., Nature, supra). INK-ATTAC transgenic mice were aged 10-12 weeks, and then cohorts of animals were treated with AP20187 or PBS (control) on a weekly basis from the start of treatment.
# senescent cells [2] = experiment: Measures of health at 18 months of age (weight, fat mass, treadmill activity) in AP20187-treated INK-ATTAC mice; assay type: in vivo, INK-ATTAC transgenic mice
# Procedure: as §1
# (§2) When the animals reached 18 months of age, several measures of health and lifespan were taken. Weight, fat mass, activity measurements (treadmill exercise tests to measure distance traveled and duration of exercise) were compared between untreated female mice (n=16) and AP20187-treated female mice (n=21), and compared between untreated male mice (n=19) and AP20187-treated male mice (n=21). Fat mass was greater in both treated females and males compared with the untreated groups (see FIG. 5). […] Treated and untreated mice (5-6 per group) were sacrificed, and adipose cell (AC) diameter, gastrocnemius muscle fiber diameter (μm), abdominal muscle fiber diameter (μm), dermal thickness (μm), subdermal adipose thickness (μm), cardiac performance (introduction of isoproterenol as an exogenous stress in animals prior to sacrifice), and extent of glomerulosclerosis were determined. Treated animals had greater adipose cell diameter (see FIG. 6); better cardiac performance (FIG. 7); and had less sclerotic glomeruli (see FIG. 8) than untreated animals. […] Removal of senescent cells in AP20187-treated animals prevented loss of adipose tissue, prevented loss of cardiac performance, and reduced the extent of glomerulosclerosis.
# senescent cells [3] = experiment: Tissue and organ analyses after sacrifice (adipose cell diameter, muscle fiber diameter, skin thickness, cardiac performance, glomerulosclerosis) in AP20187-treated INK-ATTAC mice; assay type: in vivo, INK-ATTAC transgenic mice; conditions: treated vs untreated
# Procedure: as §1, §2
smiles,measurement,setting,value
CC[C@H](C(=O)N1CCCC[C@H]1C(=O)O[C@H](CCc1ccc(OC)c(OC)c1)c1cccc(OCC(=O)NCC(CNC(=O)COc2cccc([C@@H](CCc3ccc(OC)c(OC)c3)OC(=O)[C@@H]3CCCCN3C(=O)[C@@H](CC)c3cc(OC)c(OC)c(OC)c3)c2)CN(C)C)c1)c1cc(OC)c(OC)c(OC)c1 [AP20187],average lifespan,senescent cells [1],approximately 26 months
same,fat mass,"senescent cells [2]; treated females and males each vs untreated group of same sex, FIG. 5",greater
same,activity measurements (treadmill exercise tests: distance traveled and duration of exercise),senescent cells [2]; treated vs untreated animals,No statistically significant differences
same,weight,senescent cells [2]; treated vs untreated animals,No statistically significant differences
same,cardiac performance,"senescent cells [3]; isoproterenol as exogenous stress prior to sacrifice, FIG. 7",better
same,adipose cell (AC) diameter,"senescent cells [3]; sacrificed mice, 5-6 per group, FIG. 6",greater
same,abdominal muscle fiber diameter,senescent cells [3]; sacrificed mice,No significant differences
same,dermal thickness,senescent cells [3]; sacrificed mice,No significant differences
same,gastrocnemius muscle fiber diameter,senescent cells [3]; sacrificed mice,No significant differences
same,subdermal adipose thickness,senescent cells [3]; sacrificed mice,No significant differences
same,extent of glomerulosclerosis (sclerotic glomeruli),"senescent cells [3]; sacrificed mice, FIG. 8",less
